Measurements published in ChEMBL document CHEMBL1201862, “PubChem BioAssay data set” (2004).
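96-well plates; 48 h exposure; 5 concentrations. Endpoints by linear interpolation between flanking doses. Not reached: highest tested concentration assigned. GI50 = concentration required for 50% inhibition of growth.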 Calls of active or inactive are those of the source. Rule as the data show it: active = GI50 up to about 1.1 µM and inactive = higher.

Columns and labels:
Assay in all cases: NCI-60 cell line screen, 48 h
NCI-H226 = system: NCI-H226
PC-3 = system: PC-3
OVCAR-8 = system: OVCAR-8
Hs-578T = system: Hs-578T
NCI-H522 = system: NCI-H522
HT-29 = system: HT-29
NCI-H460 = system: NCI-H460
SW-620 = system: SW-620
SK-OV-3 = system: SK-OV-3
RXF 393 = system: RXF 393
UO-31 = system: UO-31
KM12 = system: KM12
MDA-N = system: MDA-N
EKVX = system: EKVX
A498 = system: A498
SN12C = system: SN12C
U-251 = system: U-251
SF-539 = system: SF-539
MOLT-4 = system: MOLT-4
HCT-116 = system: HCT-116

SMILES	GI50 (NCI-H226)	GI50 (PC-3)	GI50 (OVCAR-8)	GI50 (Hs-578T)	GI50 (NCI-H522)	GI50 (HT-29)	GI50 (NCI-H460)	GI50 (SW-620)	GI50 (SK-OV-3)	GI50 (RXF 393)	GI50 (UO-31)	GI50 (KM12)	GI50 (MDA-N)	GI50 (EKVX)	GI50 (A498)	GI50 (SN12C)	GI50 (U-251)	GI50 (SF-539)	GI50 (MOLT-4)	GI50 (HCT-116)
NCCNCC(O)CO (stereo not given)	> 100 µM (inactive)	> 100 µM (inactive)	> 100 µM (inactive)	> 100 µM (inactive)	> 100 µM (inactive)	> 100 µM (inactive)	> 100 µM (inactive)	> 100 µM (inactive)	> 100 µM (inactive)	> 100 µM (inactive)	> 100 µM (inactive)	> 100 µM (inactive)	> 100 µM (inactive)	> 100 µM (inactive)	> 100 µM (inactive)	> 100 µM (inactive)	> 100 µM (inactive)	> 100 µM (inactive)	> 100 µM (inactive)	> 100 µM (inactive)
Clc1ccc2c(c1)N(CCCN1CCCC13CCCCC3)c1ccccc1S2	35.3 µM (inactive)	8.04 µM (inactive)	16.5 µM (inactive)	13.5 µM (inactive)	10.6 µM (inactive)	4.33 µM (inactive)	7.48 µM (inactive)	14.9 µM (inactive)	20.8 µM (inactive)	5.93 µM (inactive)	8.38 µM (inactive)	13.8 µM (inactive)	13.1 µM (inactive)	11.9 µM (inactive)	16 µM (inactive)	13.4 µM (inactive)	10.2 µM (inactive)	17.2 µM (inactive)	3.76 µM (inactive)	13.9 µM (inactive)
COc1ccc2nc(N/N=C/C(C)=N/Nc3cc(C)c4cc(OC)ccc4n3)cc(C)c2c1	45.6 µM (inactive)	22.3 µM (inactive)	19.1 µM (inactive)	31 µM (inactive)	20.3 µM (inactive)	12.7 µM (inactive)	14.7 µM (inactive)	17 µM (inactive)	> 83.8 µM (inactive)	39.9 µM (inactive)	> 80.4 µM (inactive)	18.7 µM (inactive)	23.7 µM (inactive)	19.2 µM (inactive)	> 68.2 µM (inactive)	23.9 µM (inactive)	16.2 µM (inactive)	17.8 µM (inactive)	21.2 µM (inactive)	14.2 µM (inactive)
CCNc1nc(N)c(C(=O)c2cccs2)s1	24.2 µM (inactive)	31.5 µM (inactive)	24.7 µM (inactive)	38.1 µM (inactive)	26.3 µM (inactive)	17.2 µM (inactive)	20.4 µM (inactive)	8.59 µM (inactive)	36.4 µM (inactive)	3.42 µM (inactive)	38 µM (inactive)	11.8 µM (inactive)	25.6 µM (inactive)	26.2 µM (inactive)	31 µM (inactive)	30 µM (inactive)	22.5 µM (inactive)	15.5 µM (inactive)	17.6 µM (inactive)	9.86 µM (inactive)
O=C1NN(c2ccccc2)C(=O)C2C3c4ccccc4C(c4ccccc43)C12 (stereo not given)	> 100 µM (inactive)	24.3 µM (inactive)	> 100 µM (inactive)	83.2 µM (inactive)	49.1 µM (inactive)	32.7 µM (inactive)	> 100 µM (inactive)	> 100 µM (inactive)	> 100 µM (inactive)	41.1 µM (inactive)	> 100 µM (inactive)	> 100 µM (inactive)	> 100 µM (inactive)	> 100 µM (inactive)	32.2 µM (inactive)	77.1 µM (inactive)	> 100 µM (inactive)	> 100 µM (inactive)	6.22 µM (inactive)	75 µM (inactive)
COC(=O)CCc1ccc2c(c1)CC1(C2)Cc2ccc3c(c2C1)CCC3 (stereo not given)	> 100 µM (inactive)	> 100 µM (inactive)	46.2 µM (inactive)	99.1 µM (inactive)	59.2 µM (inactive)	70.3 µM (inactive)	> 100 µM (inactive)	> 100 µM (inactive)	30.4 µM (inactive)	49.1 µM (inactive)	32.4 µM (inactive)	39.3 µM (inactive)	87.9 µM (inactive)	> 100 µM (inactive)	> 100 µM (inactive)	80 µM (inactive)	> 100 µM (inactive)	> 100 µM (inactive)	38.5 µM (inactive)	> 100 µM (inactive)
CSc1nc(NC2OC(COC(C)=O)C(OC(C)=O)C(OC(C)=O)C2OC(C)=O)c(/N=C\C=N/c2c(NC3OC(COC(C)=O)C(OC(C)=O)C(OC(C)=O)C3OC(C)=O)nc(SC)n(C)c2=O)c(=O)n1C (stereo not given)	54.1 µM (inactive)	> 100 µM (inactive)	73.8 µM (inactive)	26.1 µM (inactive)	> 100 µM (inactive)	> 82.2 µM (inactive)	> 100 µM (inactive)	> 100 µM (inactive)	36.1 µM (inactive)	17.9 µM (inactive)	> 100 µM (inactive)	> 100 µM (inactive)	> 100 µM (inactive)	> 100 µM (inactive)	38.5 µM (inactive)	> 92.9 µM (inactive)	41.2 µM (inactive)	38 µM (inactive)	> 100 µM (inactive)	> 100 µM (inactive)
Cc1c(F)c(N)c2c(=O)cc(-c3ccc(NC(=O)C(N)CCCNC(=N)N)c(F)c3)oc2c1F (stereo not given)	0.111 µM (active)	30.5 µM (inactive)	32.1 µM (inactive)	28.5 µM (inactive)	24.8 µM (inactive)	> 71.8 µM (inactive)	0.146 µM (active)	> 61.5 µM (inactive)	> 44.5 µM (inactive)	21.6 µM (inactive)	22.8 µM (inactive)	27 µM (inactive)	32.1 µM (inactive)	17.2 µM (inactive)	0.0615 µM (active)	17.1 µM (inactive)	3.6 µM (inactive)	16.7 µM (inactive)	34.6 µM (inactive)	13.2 µM (inactive)
Cc1ccc(/N=C2/SC(c3ccc(C)cc3)(c3ccc(C)cc3)c3ccccc32)cc1	> 100 µM (inactive)	> 100 µM (inactive)	> 100 µM (inactive)	> 100 µM (inactive)	> 100 µM (inactive)	> 100 µM (inactive)	> 100 µM (inactive)	> 100 µM (inactive)	> 100 µM (inactive)	> 100 µM (inactive)	> 100 µM (inactive)	> 100 µM (inactive)	> 100 µM (inactive)	> 100 µM (inactive)	> 100 µM (inactive)	> 100 µM (inactive)	> 100 µM (inactive)	> 100 µM (inactive)	> 100 µM (inactive)	> 100 µM (inactive)
O=C1C(=O)N(c2cccc(C(F)(F)F)c2)C(=O)C(=O)C1c1nc2ccccc2s1	> 81.8 µM (inactive)	> 100 µM (inactive)	20.2 µM (inactive)	> 100 µM (inactive)	> 100 µM (inactive)	78.3 µM (inactive)	> 100 µM (inactive)	61.1 µM (inactive)	> 100 µM (inactive)	> 100 µM (inactive)	79.8 µM (inactive)	> 64 µM (inactive)	> 100 µM (inactive)	> 100 µM (inactive)	> 100 µM (inactive)	> 93.3 µM (inactive)	62.4 µM (inactive)	> 100 µM (inactive)	43.3 µM (inactive)	43.8 µM (inactive)
O=C1CC(Cl)c2c1csc2Br (stereo not given)	29.9 µM (inactive)	12.8 µM (inactive)	16.3 µM (inactive)	21.6 µM (inactive)	3.26 µM (inactive)	21.7 µM (inactive)	20.4 µM (inactive)	3.48 µM (inactive)	18.6 µM (inactive)	19 µM (inactive)	8.93 µM (inactive)	13.2 µM (inactive)	19.3 µM (inactive)	20.3 µM (inactive)	24.1 µM (inactive)	17.6 µM (inactive)	16.7 µM (inactive)	3 µM (inactive)	3.66 µM (inactive)	15.9 µM (inactive)
CC/C(Cl)=N\OC(=O)Nc1ccc(C#N)cc1	16.6 µM (inactive)	16.7 µM (inactive)	16.9 µM (inactive)	21.9 µM (inactive)	1.48 µM (inactive)	18.6 µM (inactive)	19.5 µM (inactive)	3.28 µM (inactive)	4.94 µM (inactive)	8.75 µM (inactive)	17.2 µM (inactive)	17.1 µM (inactive)	16.3 µM (inactive)	13.3 µM (inactive)	16.6 µM (inactive)	16.4 µM (inactive)	17.1 µM (inactive)	16.6 µM (inactive)	2.28 µM (inactive)	14.6 µM (inactive)
O=C(Nc1nc(C23CC4CC(CC(C4)C2)C3)cs1)c1cc2cc(Br)cc(Br)c2oc1=O	33.2 µM (inactive)	71.1 µM (inactive)	34.4 µM (inactive)	27.4 µM (inactive)	> 100 µM (inactive)	> 100 µM (inactive)	37 µM (inactive)	43.2 µM (inactive)	> 100 µM (inactive)	31 µM (inactive)	> 100 µM (inactive)	> 100 µM (inactive)	87.5 µM (inactive)	39.4 µM (inactive)	> 100 µM (inactive)	31.8 µM (inactive)	20.3 µM (inactive)	51.8 µM (inactive)	50.1 µM (inactive)	59 µM (inactive)
CCCCCCCCCCCCCCCCCCNc1ccn(C2OC(COP(=O)(O)OCC3CCC(n4cnc5c(=O)[nH]cnc54)O3)C(O)C2O)c(=O)n1 (stereo not given)	> 100 µM (inactive)	14.2 µM (inactive)	> 100 µM (inactive)	> 100 µM (inactive)	51.5 µM (inactive)	> 100 µM (inactive)	> 100 µM (inactive)	> 100 µM (inactive)	> 100 µM (inactive)	19.9 µM (inactive)	> 100 µM (inactive)	> 100 µM (inactive)	> 100 µM (inactive)	> 100 µM (inactive)	> 100 µM (inactive)	> 100 µM (inactive)	> 100 µM (inactive)	83.8 µM (inactive)	> 100 µM (inactive)	> 100 µM (inactive)
